Experimental data from ChEMBL document CHEMBL1144487 (Bioorg Med Chem, 2007).

Assays:
[1] = Cytotoxicity against rat H-ras transformed NRK H/1.2 cells after 5 days; assay type: cell-based; conditions: NRK H/1.2, 120 h, read-out: LC50 (the source's name)
[2] = Cytotoxicity against mouse 3LL cells after 5 days; assay type: cell-based; conditions: 120 h, read-out: LC50 (the source's name)
[3] = Cytotoxicity against rat NRK 52E cells after 5 days; assay type: cell-based; conditions: read-out: LC50
[4] = Cytotoxicity against rat K-ras transformed NRK K/1 cells after 5 days; assay type: cell-based; conditions: NRK K/1, 120 h, read-out: LC50 (the source's name)
[5] = Differential index, LC50 for rat NRK 52E cells to LC50 for rat H-ras transformed NRK H/1.2 cells; assay type: ADME, cell-based; conditions: NRK 52E cells versus H-ras transformed NRK H/1.2 cells
[6] = Differential index, LC50 for rat NRK 52E cells to LC50 for rat K-ras transformed NRK K/1 cells; assay type: ADME, cell-based; conditions: NRK 52E cells versus K-ras transformed NRK K/1 cells
[7] = Differential index, LC50 for rat NRK 52E cells to LC50 for mouse 3LL cells; assay type: ADME, cell-based; conditions: NRK 52E cells versus 3LL cells
[8] = Cytotoxicity against rat N-ras transformed NRK N/4.2 cells after 5 days; assay type: cell-based; conditions: NRK N/4.2, 120 h, read-out: LC50 (the source's name)
[9] = Differential index, LC50 for rat NRK 52E cells to LC50 for rat N-ras transformed NRK N/4.2 cells; assay type: ADME, cell-based; conditions: NRK 52E cells versus N-ras transformed NRK N/4.2 cells

Row | Compound | CC50 [1] | CC50 [2] | CC50 at 120 h [3] | CC50 [4] | selectivity ratio [5] | selectivity ratio [6] | selectivity ratio [7] | CC50 [8] | selectivity ratio [9]
1 | NC1=CC(=O)c2ccc(C=O)nc2C1=O | 2.2 µM | 2.3 µM | 2.4 µM | 4.3 µM |  |  |  |  | 
2 | COC(=O)c1cc2c([nH]c3ccccc32)c(-c2ccc3c(n2)C(=O)C(NC(C)=O)=CC3=O)n1 | 0.51 µM | 0.84 µM | 0.5 µM | 0.11 µM | 1 | 4.5 | 0.6 | 0.52 µM | 1
3 | Cc1ccc2c(n1)C(=O)C(N)=CC2=O | 0.6 µM | 0.8 µM | 0.8 µM | 1.3 µM |  |  |  |  | 
4 | CC(C)C(=O)NC1=CC(=O)c2ccc(C=O)nc2C1=O | > 3.3 µM | 1 µM | > 3.3 µM | 2.15 µM |  |  |  | > 3.3 µM | 
5 | CCCCOC(=O)c1cc2c([nH]c3ccccc32)c(-c2ccc3c(n2)C(=O)C(NC(=O)CCl)=CC3=O)n1 | 0.74 µM | 2.3 µM | 0.96 µM | 0.52 µM | 1.3 | 1.8 | 0.4 | 1.05 µM | 0.9
6 | CC(=O)NC1=CC(=O)c2ccc(-c3nc(C(=O)OCCC(C)C)c(C)c4c3[nH]c3ccccc34)nc2C1=O | 4.3 µM | 7.4 µM | 4.16 µM | 5 µM | 1.1 | 0.9 | 0.6 | 3.89 µM | 1.2
7 | COC1=CC(=O)c2ccc(C)nc2C1=O | 4.2 µM | 7.4 µM | 6.9 µM | 11.8 µM |  |  |  |  | 
8 | CCCC(=O)NC1=CC(=O)c2ccc(-c3nc(C(=O)OCCC(C)C)cc4c3[nH]c3ccccc34)nc2C1=O | 0.37 µM | 2.4 µM | 1 µM | 0.6 µM | 2.7 | 1.6 | 0.4 | 0.65 µM | 1.5
9 | Cc1ccc2c(n1)C(=O)C(NCCCCO)=CC2=O | 10.5 µM | 3.8 µM | 10.5 µM | 13.5 µM |  |  |  |  | 
10 | COC(=O)c1nc(-c2ccc3c(n2)C(=O)C(NC(=O)CCl)=CC3=O)c2[nH]c3ccccc3c2c1C | 0.58 µM | 2 µM | 0.58 µM | 0.79 µM | 1 | 0.7 | 0.3 | 0.7 µM | 0.8
11 | CC(=O)NC1=CC(=O)c2cc(C)cnc2C1=O | 1.1 µM | 1 µM | 1.3 µM | 1.8 µM |  |  |  |  | 
12 | CCOC(=O)c1cc2c([nH]c3ccccc32)c(-c2ccc3c(n2)C(=O)C(NC(C)=O)=CC3=O)n1 | 0.36 µM | 3.2 µM | 0.3 µM | 0.04 µM | 0.8 | 7.5 | 0.1 | 0.2 µM | 0.7
13 | CCCC(=O)NC1=CC(=O)c2ccc(-c3nc(C(=O)OC)c(C)c4c3[nH]c3ccccc34)nc2C1=O | 0.4 µM | 0.82 µM | 0.32 µM | 0.33 µM | 0.8 | 1 | 0.4 | 0.42 µM | 0.8
14 | Cc1ccc2c(n1)C(=O)C(NC(=O)C(C)C)=CC2=O | 1.45 µM | 0.71 µM | 1.5 µM | 7.5 µM |  |  |  | 1.15 µM | 
15 | CCCCOC(=O)c1cc2c([nH]c3ccc(F)cc32)c(-c2ccc3c(n2)C(=O)C(NC(C)=O)=CC3=O)n1 | 0.7 µM | 2.1 µM | 0.62 µM | 0.33 µM | 0.9 | 1.9 | 0.3 | 0.84 µM | 0.8
16 | CC(C)CCOC(=O)c1cc2c([nH]c3ccccc32)c(-c2ccc3c(n2)C(=O)C(NC(=O)CCl)=CC3=O)n1 | 1.32 µM | 3.2 µM | 1.35 µM | 0.56 µM | 1 | 2.4 | 0.4 | 1.2 µM | 1.1
17 | CC(=O)NC1=CC(=O)c2ccc(C=O)nc2C1=O | 2.5 µM | 1.2 µM | 1.3 µM | 2.6 µM |  |  |  |  | 

Row | Compound | CC50 [1] | CC50 [2] | CC50 at 120 h [3] | CC50 [4] | selectivity ratio [5] | selectivity ratio [6] | selectivity ratio [7] | CC50 [8] | selectivity ratio [9]
18 | O=Cc1ccc2c(n1)C(=O)C(NC(=O)CCl)=CC2=O | 3.4 µM | 2.1 µM | 3.6 µM | 5.8 µM |  |  |  | 3.2 µM | 
19 | CC(=O)NC1=CC(=O)c2ccc(-c3nc(C(=O)OC4CCCCC4)cc4c3[nH]c3ccccc34)nc2C1=O | 0.69 µM | 1 µM | 0.7 µM | 0.4 µM | 1 | 1.7 | 0.7 | 0.7 µM | 1
20 | CC(=O)NC1=CC(=O)c2ccc(-c3[nH]c(CO)cc4c5ccccc5nc3-4)nc2C1=O | 0.2 µM | 0.44 µM | 0.25 µM | 0.2 µM | 1.2 | 1.2 | 0.6 | 0.22 µM | 1.1
21 | CCCCCCCCOC(=O)c1cc2c([nH]c3ccccc32)c(-c2ccc3c(n2)C(=O)C(NC(=O)CCl)=CC3=O)n1 | > 33 µM | > 33 µM | > 33 µM | 15 µM |  | > 2.2 |  | > 33 µM | 1
22 | Cc1ccc2c(n1)C(=O)C(NC(=O)CCl)=CC2=O | 2.8 µM | 2.3 µM | 3.2 µM | 6.6 µM |  |  |  | 3.4 µM | 
23 | CC(=O)NC1=CC(=O)c2ccc(C(=O)O)nc2C1=O | > 31 µM | 26 µM | > 33 µM | > 33 µM |  |  |  |  | 
24 | CC(=O)NC1=CC(=O)c2ccc(-c3[nH]c(C(=O)O)cc4c5ccccc5nc3-4)nc2C1=O | 0.11 µM | 0.4 µM | 0.15 µM | 0.07 µM | 1.4 | 2.1 | 0.4 | 0.1 µM | 1.5
25 | CC(=O)NC1=CC(=O)c2ccc(-c3nc(C(=O)OCc4ccccc4)cc4c3[nH]c3ccccc34)nc2C1=O | > 10 µM | > 33 µM | 9.5 µM | 9.5 µM | < 0.9 | 1 | < 0.3 | > 33 µM | < 0.3
26 | CCCC(=O)NC1=CC(=O)c2ccc(-c3nc(C(=O)OC)cc4c3[nH]c3ccccc34)nc2C1=O | 0.66 µM | 1.3 µM | 0.7 µM | 0.5 µM | 1.1 | 1.4 | 0.5 | 0.64 µM | 1.1
27 | COC(=O)c1cc2c([nH]c3ccccc32)c(-c2ccc3c(n2)C(=O)C(NC(=O)C(C)C)=CC3=O)n1 | 0.66 µM | 1.3 µM | 0.7 µM | 0.5 µM | 1.1 | 1.4 | 0.5 | 0.64 µM | 1.1
28 | CC(=O)NC1=CC(=O)c2ccc(-c3nc(C(=O)OCCN(C)C)c(C)c4c3[nH]c3ccccc34)nc2C1=O | 0.09 µM | 0.48 µM | 0.09 µM | 0.06 µM | 1 | 1.5 | 0.2 | 0.09 µM | 1
29 | CCCCOC(=O)c1cc2c([nH]c3ccccc32)c(-c2ccc3c(n2)C(=O)C(NC(=O)CCC)=CC3=O)n1 [LAV12] | 0.4 µM | 2.3 µM | 0.66 µM | 0.5 µM | 1.6 | 1.3 | 0.3 | 0.7 µM | 0.9
30 | CCCCOC(=O)c1cc2c([nH]c3ccc(OC)cc32)c(-c2ccc3c(n2)C(=O)C(NC(C)=O)=CC3=O)n1 | 2.1 µM | > 3.3 µM | 2.5 µM | 2.2 µM | 1.2 | 1.1 | < 0.7 | 2.2 µM | 1.1
31 | CC(=O)NC1=CC(=O)c2ccc(-c3nc(C(=O)OCCN(C)C)cc4c3[nH]c3ccccc34)nc2C1=O | 0.24 µM | 0.5 µM | 0.37 µM | 0.14 µM | 1.5 | 2.6 | 0.7 | 0.29 µM | 1.3
32 | CCCCOC(=O)c1cc2c([nH]c3ccccc32)c(-c2ccc3c(n2)C(=O)C(NC(=O)C(C)C)=CC3=O)n1 | 0.61 µM | 0.9 µM | 0.9 µM | 0.4 µM | 1.5 | 2.3 | 1 | 0.5 µM | 1.8
33 | CC(=O)NC1=CC(=O)c2nc(C)ccc2C1=O | 20 µM | > 33 µM | 21.5 µM | > 33 µM |  |  |  |  | 
